Columns and labels:
Assay type in all cases: in vivo
Scirpus juncoides [1] = test: Test Example 2: herbicidal effect test by treatment during growing period in paddy field; conditions: treatment 7 days after sowing, 120 g/10a, evaluated 14 days after treatment
Experimental: (§1) This test was performed with two replications per one formulation concentration plot, and 14 days after the formulation treatments, the weed suppression rate (%) was determined according to the following equation (Math. 1). Weed suppression rate (%)=(1−an average dry weight (g) of plants in treated plots/an average dry weight (g) of plants in untreated plots)×100 [Math. 1]
(§2) A Wagner pot having an area of 1/10000 are was filled with paddy field soil and after adding water, a chemical fertilizer (N:P:K=17:17:17) was mixed, followed by puddling. Thereafter, 30 grains of each of Echinochloa crus-galli, broad-leaved weed (Lindernia pyxidaria and Monochoria vaginalis) and Scirpus juncoides seeds were sown to a depth of 0 to 1 cm. Immediately after the sowing, the pot was flooded, and the depth of water was kept at about 3 cm. The pot was subsequently managed in a glass greenhouse. Seven days after sowing, an emulsifiable concentrate prepared according to Formulation Example 5 by using the compound shown in Table 6 below was diluted with water, and a predetermined amount of the water-diluted formulation was added dropwise. The application rate of the active ingredient, by conversion, corresponded to 120 g per 10 are. The test was performed with two replications per one formulation concentration plot, and 14 days after the formulation treatments, the weed suppression rate (%) was determined according to the equation (Math. 1).

Lindernia pyxidaria [2] = test: as above; conditions: treatment 7 days after sowing, 120 g/10a, evaluated 14 days after treatment
Experimental: as §1, §2

Monochoria vaginalis [3] = test: as above; conditions: treatment 7 days after sowing, 120 g/10a, evaluated 14 days after treatment
Experimental: as §1, §2

Echinochloa crus-galli [4] = test: as above; conditions: treatment 7 days after sowing, 120 g/10a, evaluated 14 days after treatment
Experimental: as §1, §2

Scirpus juncoides [5] = test: Test Example 1: herbicidal effect test by soil treatment in paddy field; conditions: 120 g/10a, paddy soil treatment just after sowing, 14 days after treatment
Text: as §2, with “greenhouse. Just” for “greenhouse. Seven days”, “after that,” for “after sowing,”, “Table 5” for “Table 6”, “are.” for “are. The test was performed with two replications per one formulation concentration plot, and 14 days after the formulation treatments, the weed suppression rate (%) was determined according to the equation (Math. 1).”
as §1

Lindernia pyxidaria [6] = test: as above; conditions: 120 g/10a, paddy soil treatment just after sowing, 14 days after treatment
Text: as §2, with “greenhouse. Just” for “greenhouse. Seven days”, “after that,” for “after sowing,”, “Table 5” for “Table 6”, “are.” for “are. The test was performed with two replications per one formulation concentration plot, and 14 days after the formulation treatments, the weed suppression rate (%) was determined according to the equation (Math. 1).”
as §1

Monochoria vaginalis [7] = test: as above; conditions: 120 g/10a, paddy soil treatment just after sowing, 14 days after treatment
Text: as §2, with “greenhouse. Just” for “greenhouse. Seven days”, “after that,” for “after sowing,”, “Table 5” for “Table 6”, “are.” for “are. The test was performed with two replications per one formulation concentration plot, and 14 days after the formulation treatments, the weed suppression rate (%) was determined according to the equation (Math. 1).”
as §1

Echinochloa crus-galli [8] = test: as above; conditions: 120 g/10a, paddy soil treatment just after sowing, 14 days after treatment
Text: as §2, with “greenhouse. Just” for “greenhouse. Seven days”, “after that,” for “after sowing,”, “Table 5” for “Table 6”, “are.” for “are. The test was performed with two replications per one formulation concentration plot, and 14 days after the formulation treatments, the weed suppression rate (%) was determined according to the equation (Math. 1).”
as §1

## CC(C)N(C(=O)n1ncn(S(=O)(=O)C2CCOC2)c1=O)c1ccc(F)cc1F (racemic) [Compound 1-1161]
Scirpus juncoides [1]
  weed suppression rate, Scirpus juncoides: 90%
Lindernia pyxidaria [2]
  weed suppression rate, Lindemia pyxidaria: 80%
Monochoria vaginalis [3]
  weed suppression rate, Monochoria vaginalis: 80%
Echinochloa crus-galli [4]
  weed suppression rate, Echinochloa crus-galli: 90%
Scirpus juncoides [5]
  weed suppression rate, Scirpus juncoides: 90%
Lindernia pyxidaria [6]
  weed suppression rate, Lindemia pyxidaria: 80%
Monochoria vaginalis [7]
  weed suppression rate, Monochoria vaginalis: 80%
Echinochloa crus-galli [8]
  weed suppression rate, Echinochloa crus-galli: 90%

## CC(C)N(C(=O)n1ncn(S(=O)(=O)C(C)C)c1=O)c1ccccc1F [Compound 1-55]
Scirpus juncoides [1]
  weed suppression rate, Scirpus juncoides: 90%
Lindernia pyxidaria [2]
  weed suppression rate, Lindemia pyxidaria: 90%
Monochoria vaginalis [3]
  weed suppression rate, Monochoria vaginalis: 90%
Echinochloa crus-galli [4]
  weed suppression rate, Echinochloa crus-galli: 90%
Scirpus juncoides [5]
  weed suppression rate, Scirpus juncoides: 90%
Lindernia pyxidaria [6]
  weed suppression rate, Lindemia pyxidaria: 90%
Monochoria vaginalis [7]
  weed suppression rate, Monochoria vaginalis: 90%
Echinochloa crus-galli [8]
  weed suppression rate, Echinochloa crus-galli: 90%

## CC(C)N(C(=O)n1ncn(S(=O)(=O)C(C)C)c1=O)c1ccc(Cl)cc1F [Compound 1-73]
Scirpus juncoides [1]
  weed suppression rate, Scirpus juncoides: 100%
Lindernia pyxidaria [2]
  weed suppression rate, Lindemia pyxidaria: 80%
Monochoria vaginalis [3]
  weed suppression rate, Monochoria vaginalis: 90%
Echinochloa crus-galli [4]
  weed suppression rate, Echinochloa crus-galli: 100%
Scirpus juncoides [5]
  weed suppression rate, Scirpus juncoides: 80%
Lindernia pyxidaria [6]
  weed suppression rate, Lindemia pyxidaria: 100%
Monochoria vaginalis [7]
  weed suppression rate, Monochoria vaginalis: 90%
Echinochloa crus-galli [8]
  weed suppression rate, Echinochloa crus-galli: 100%

## Cc1ccc(N(C(=O)n2ncn(S(=O)(=O)C(C)C)c2=O)C(C)C)c(Cl)c1 [Compound 1-81]
Scirpus juncoides [1]
  weed suppression rate, Scirpus juncoides: 90%
Lindernia pyxidaria [2]
  weed suppression rate, Lindemia pyxidaria: 80%
Monochoria vaginalis [3]
  weed suppression rate, Monochoria vaginalis: 80%
Echinochloa crus-galli [4]
  weed suppression rate, Echinochloa crus-galli: 90%
Scirpus juncoides [5]
  weed suppression rate, Scirpus juncoides: 90%
Lindernia pyxidaria [6]
  weed suppression rate, Lindemia pyxidaria: 80%
Monochoria vaginalis [7]
  weed suppression rate, Monochoria vaginalis: 80%
Echinochloa crus-galli [8]
  weed suppression rate, Echinochloa crus-galli: 90%

## CC(C)N(C(=O)n1ncn(S(=O)(=O)C(C)C)c1=O)c1ccc(F)nc1 [Compound 1-91]
Scirpus juncoides [1]
  weed suppression rate, Scirpus juncoides: 90%
Lindernia pyxidaria [2]
  weed suppression rate, Lindemia pyxidaria: 90%
Monochoria vaginalis [3]
  weed suppression rate, Monochoria vaginalis: 90%
Echinochloa crus-galli [4]
  weed suppression rate, Echinochloa crus-galli: 100%
Scirpus juncoides [5]
  weed suppression rate, Scirpus juncoides: 90%
Lindernia pyxidaria [6]
  weed suppression rate, Lindemia pyxidaria: 90%
Monochoria vaginalis [7]
  weed suppression rate, Monochoria vaginalis: 90%
Echinochloa crus-galli [8]
  weed suppression rate, Echinochloa crus-galli: 100%

## CC(C)N(C(=O)n1ncn(S(=O)(=O)C(C)C)c1=O)c1ccc(Cl)nc1 [Compound 1-97]
Scirpus juncoides [1]
  weed suppression rate, Scirpus juncoides: 80%
Lindernia pyxidaria [2]
  weed suppression rate, Lindemia pyxidaria: 80%
Monochoria vaginalis [3]
  weed suppression rate, Monochoria vaginalis: 90%
Echinochloa crus-galli [4]
  weed suppression rate, Echinochloa crus-galli: 90%
Scirpus juncoides [5]
  weed suppression rate, Scirpus juncoides: 90%
Lindernia pyxidaria [6]
  weed suppression rate, Lindemia pyxidaria: 80%
Monochoria vaginalis [7]
  weed suppression rate, Monochoria vaginalis: 90%
Echinochloa crus-galli [8]
  weed suppression rate, Echinochloa crus-galli: 90%

## CC(C)N(C(=O)n1ncn(S(=O)(=O)C2CC2)c1=O)c1ccc(Br)cc1Cl [Compound 1-218]
Scirpus juncoides [1]
  weed suppression rate, Scirpus juncoides: 100%
Lindernia pyxidaria [2]
  weed suppression rate, Lindemia pyxidaria: 100%
Monochoria vaginalis [3]
  weed suppression rate, Monochoria vaginalis: 80%
Echinochloa crus-galli [4]
  weed suppression rate, Echinochloa crus-galli: 100%
Scirpus juncoides [5]
  weed suppression rate, Scirpus juncoides: 100%
Lindernia pyxidaria [6]
  weed suppression rate, Lindemia pyxidaria: 100%
Monochoria vaginalis [7]
  weed suppression rate, Monochoria vaginalis: 80%
Echinochloa crus-galli [8]
  weed suppression rate, Echinochloa crus-galli: 100%

## CC(C)N(C(=O)n1ncn(S(=O)(=O)C2CC2)c1=O)c1ccc(Cl)cc1Br [Compound 1-219]
Scirpus juncoides [1]
  weed suppression rate, Scirpus juncoides: 100%
Lindernia pyxidaria [2]
  weed suppression rate, Lindemia pyxidaria: 90%
Monochoria vaginalis [3]
  weed suppression rate, Monochoria vaginalis: 90%
Echinochloa crus-galli [4]
  weed suppression rate, Echinochloa crus-galli: 100%
Scirpus juncoides [5]
  weed suppression rate, Scirpus juncoides: 100%
Lindernia pyxidaria [6]
  weed suppression rate, Lindemia pyxidaria: 100%
Monochoria vaginalis [7]
  weed suppression rate, Monochoria vaginalis: 100%
Echinochloa crus-galli [8]
  weed suppression rate, Echinochloa crus-galli: 100%

## Cc1cc(F)ccc1N(C(=O)n1ncn(S(=O)(=O)C2CC2)c1=O)C(C)C [Compound 1-220]
Scirpus juncoides [1]
  weed suppression rate, Scirpus juncoides: 90%
Lindernia pyxidaria [2]
  weed suppression rate, Lindemia pyxidaria: 90%
Monochoria vaginalis [3]
  weed suppression rate, Monochoria vaginalis: 100%
Echinochloa crus-galli [4]
  weed suppression rate, Echinochloa crus-galli: 100%
Scirpus juncoides [5]
  weed suppression rate, Scirpus juncoides: 90%
Lindernia pyxidaria [6]
  weed suppression rate, Lindemia pyxidaria: 100%
Monochoria vaginalis [7]
  weed suppression rate, Monochoria vaginalis: 80%
Echinochloa crus-galli [8]
  weed suppression rate, Echinochloa crus-galli: 100%

## Cc1ccc(N(C(=O)n2ncn(S(=O)(=O)C3CC3)c2=O)C(C)C)c(Cl)c1 [Compound 1-223]
Scirpus juncoides [1]
  weed suppression rate, Scirpus juncoides: 90%
Lindernia pyxidaria [2]
  weed suppression rate, Lindemia pyxidaria: 80%
Monochoria vaginalis [3]
  weed suppression rate, Monochoria vaginalis: 80%
Echinochloa crus-galli [4]
  weed suppression rate, Echinochloa crus-galli: 90%
Scirpus juncoides [5]
  weed suppression rate, Scirpus juncoides: 90%
Lindernia pyxidaria [6]
  weed suppression rate, Lindemia pyxidaria: 80%
Monochoria vaginalis [7]
  weed suppression rate, Monochoria vaginalis: 80%
Echinochloa crus-galli [8]
  weed suppression rate, Echinochloa crus-galli: 100%

## CC(C)N(Cc1ccc(F)cc1F)C(=O)n1ncn(S(=O)(=O)C2CC2)c1=O [Compound 1-238]
Scirpus juncoides [1]
  weed suppression rate, Scirpus juncoides: 90%
Lindernia pyxidaria [2]
  weed suppression rate, Lindemia pyxidaria: 80%
Monochoria vaginalis [3]
  weed suppression rate, Monochoria vaginalis: 90%
Echinochloa crus-galli [4]
  weed suppression rate, Echinochloa crus-galli: 90%
Scirpus juncoides [5]
  weed suppression rate, Scirpus juncoides: 90%
Lindernia pyxidaria [6]
  weed suppression rate, Lindemia pyxidaria: 80%
Monochoria vaginalis [7]
  weed suppression rate, Monochoria vaginalis: 80%
Echinochloa crus-galli [8]
  weed suppression rate, Echinochloa crus-galli: 90%

## CC(C)N(C(=O)n1ncn(S(=O)(=O)C2CC2)c1=O)c1ccc(Cl)nc1 [Compound 1-248]
Scirpus juncoides [1]
  weed suppression rate, Scirpus juncoides: 90%
Lindernia pyxidaria [2]
  weed suppression rate, Lindemia pyxidaria: 90%
Monochoria vaginalis [3]
  weed suppression rate, Monochoria vaginalis: 90%
Echinochloa crus-galli [4]
  weed suppression rate, Echinochloa crus-galli: 100%
Scirpus juncoides [5]
  weed suppression rate, Scirpus juncoides: 100%
Lindernia pyxidaria [6]
  weed suppression rate, Lindemia pyxidaria: 100%
Monochoria vaginalis [7]
  weed suppression rate, Monochoria vaginalis: 90%
Echinochloa crus-galli [8]
  weed suppression rate, Echinochloa crus-galli: 100%

## Cc1cc(N(C(=O)n2ncn(S(=O)(=O)C3CC3)c2=O)C(C)C)no1 [Compound 1-250]
Scirpus juncoides [1]
  weed suppression rate, Scirpus juncoides: 80%
Lindernia pyxidaria [2]
  weed suppression rate, Lindemia pyxidaria: 90%
Monochoria vaginalis [3]
  weed suppression rate, Monochoria vaginalis: 90%
Echinochloa crus-galli [4]
  weed suppression rate, Echinochloa crus-galli: 90%
Scirpus juncoides [5]
  weed suppression rate, Scirpus juncoides: 90%
Lindernia pyxidaria [6]
  weed suppression rate, Lindemia pyxidaria: 80%
Monochoria vaginalis [7]
  weed suppression rate, Monochoria vaginalis: 80%
Echinochloa crus-galli [8]
  weed suppression rate, Echinochloa crus-galli: 90%

## CC(C)N(C(=O)n1ncn(S(=O)(=O)C2CCCCC2)c1=O)c1ccccc1F [Compound 1-296]
Scirpus juncoides [1]
  weed suppression rate, Scirpus juncoides: 90%
Lindernia pyxidaria [2]
  weed suppression rate, Lindemia pyxidaria: 90%
Monochoria vaginalis [3]
  weed suppression rate, Monochoria vaginalis: 90%
Echinochloa crus-galli [4]
  weed suppression rate, Echinochloa crus-galli: 90%
Scirpus juncoides [5]
  weed suppression rate, Scirpus juncoides: 90%
Lindernia pyxidaria [6]
  weed suppression rate, Lindemia pyxidaria: 80%
Monochoria vaginalis [7]
  weed suppression rate, Monochoria vaginalis: 80%
Echinochloa crus-galli [8]
  weed suppression rate, Echinochloa crus-galli: 90%

## CC(C)N(C(=O)n1ncn(S(=O)(=O)C2CCCCC2)c1=O)c1c(F)cc(F)cc1F [Compound 1-310]
Scirpus juncoides [1]
  weed suppression rate, Scirpus juncoides: 100%
Lindernia pyxidaria [2]
  weed suppression rate, Lindemia pyxidaria: 100%
Monochoria vaginalis [3]
  weed suppression rate, Monochoria vaginalis: 100%
Echinochloa crus-galli [4]
  weed suppression rate, Echinochloa crus-galli: 100%
Scirpus juncoides [5]
  weed suppression rate, Scirpus juncoides: 100%
Lindernia pyxidaria [6]
  weed suppression rate, Lindemia pyxidaria: 100%
Monochoria vaginalis [7]
  weed suppression rate, Monochoria vaginalis: 100%
Echinochloa crus-galli [8]
  weed suppression rate, Echinochloa crus-galli: 100%

From patent US11076595B2, “1-(n,n-disubstituted carbamoyl) 4-(substituted sulfonyl)triazolin-5-one derivative, 4-(n,n-disubstituted carbamoyl) 1-(substituted sulfonyl)triazolin-5-one derivative, and herbicide containing said derivative as active ingredient” (HOKKO CHEMICAL INDUSTRY CO., LTD., priority 2017, dated 2021)
